# Patent US20210260213A1, “METHODS AND COMPOSITIONS FOR DELIVERY OF A THERAPEUTIC AGENT” (priority 2018, published 2021)
# Assays:
# [1] = test system: Pseudomonas aeruginosa; test: Filter disc zone of inhibition on Mueller Hinton plates; assay type: cell-based; details: control study
# Experimental: (§1) Antimicrobial activity of the released drug was tested on Pseudomonas aeruginosa and MRSA cultures and compared to standard concentrations of antibiotic using filter disks on Mueller Hinton plates. The released antibiotics or controls were added onto sterile filter discs (created using a standard hole punch on filter paper, autoclaved). One colony of each bacteria was selected and (pseudomonas or MRSA) placed into a bacteria culture tube and were incubated in 5 mL of LB broth and placed on 37° C. shaker for approximately 4-6 hours.
# (§2) 500 μL of the incubated bacteria was then added to the Mueller-Hinton Plates (which have been acclimated to room temperature for at least 2 hours) and a plastic disposable spreader was used to carefully spread the bacteria broth onto the plates and allowed to settle for approximately 5-10 minutes. The filter discs were then placed on top of the bacterial plate and the plates inverted and placed in the 37° C. incubator overnight. After 24 hours, the plates were removed and the zones of inhibition measured and photographed. Parafilm was used to wrap around each plate to keep the plates at room temperature.
# [2] = published studies; cited from earlier work
# [3] = test system: MRSA; test: Filter disc zone of inhibition on Mueller Hinton plates; assay type: cell-based
# Experimental: as §1, §2
structure (smiles),measurement,setting,value
O=C(O)c1cn(C2CC2)c2cc(N3CCNCC3)c(F)cc2c1=O [Ciprofloxacin],amount sufficient to inhibit growth,[1],5 µg
same,minimum inhibitory concentration,[2],0.5 µg/mL
CN[C@H](CC(C)C)C(=O)N[C@H]1C(=O)N[C@@H](CC(N)=O)C(=O)N[C@H]2C(=O)N[C@H]3C(=O)N[C@H](C(=O)N[C@H](C(=O)O)c4cc(O)cc(O)c4-c4cc3ccc4O)[C@H](O)c3ccc(c(Cl)c3)Oc3cc2cc(c3O[C@@H]2O[C@H](CO)[C@@H](O)[C@H](O)[C@H]2O[C@H]2C[C@](C)(N)[C@H](O)[C@H](C)O2)Oc2ccc(cc2Cl)[C@H]1O [Vancomycin],zone of inhibition at 10 µg/disc,"[3]; Staphylococcus aureus, MRSA, control, 10 μg on a filter disc",8 mm
same,amount sufficient to inhibit growth,"[3]; control study, filter disc",10 µg
same,zone of inhibition,"[3]; drug released from the HA polymer, every collection between 1 hour and 7 days",up to 15 mm
same,minimum inhibitory concentration,[2],2 µg/mL
